In ChEMBL document CHEMBL4364255, “3,4-Dideoxy-3,3,4,4-tetrafluoro- and 4-OH epimeric 3-deoxy-3,3-difluoro-α-GalCer analogues: Synthesis and biological evaluation on human iNKT cells stimulation” (Eur J Med Chem, 2019):
Active and inactive are the calls of the source. The calls are words filed in the database; no cut-off is given here.

Tests used:
Assay type in all cases: cell-based
iNKT [1] = assay: Effect on human iNKT MAD11 cells stimulation assessed as increase in IL-13 production pretreated with HeLa cells for overnight prior to iNKT MAD11 cells addition and measured after 24 hrs by ELISA
[2] = molecular target: T1, Antigen-presenting glycoprotein CD1d (Homo sapiens) (UniProt P15813); assay: Binding affinity to human CD1d expressed in human HeLa cells assessed as increase in IFNgamma production at 10 uM to 10^-4 uM incubated overnight prior to iNKT MAD11 cells addition to CD1d-compound mixture and measured after 6 hrs by ELISA
T1 sequence (whole entry): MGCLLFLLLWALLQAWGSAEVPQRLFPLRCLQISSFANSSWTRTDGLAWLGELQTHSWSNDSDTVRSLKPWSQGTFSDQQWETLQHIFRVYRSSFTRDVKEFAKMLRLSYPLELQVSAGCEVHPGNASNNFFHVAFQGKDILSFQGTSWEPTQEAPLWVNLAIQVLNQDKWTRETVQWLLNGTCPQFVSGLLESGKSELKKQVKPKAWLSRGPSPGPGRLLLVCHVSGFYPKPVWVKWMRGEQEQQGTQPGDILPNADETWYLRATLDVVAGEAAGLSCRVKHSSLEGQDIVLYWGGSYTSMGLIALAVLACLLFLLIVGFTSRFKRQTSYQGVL

iNKT [3] = assay: Effect on human iNKT MAD11 cells stimulation assessed as increase in IFNgamma production pretreated with HeLa cells for overnight prior to iNKT MAD11 cells addition and measured after 6 hrs by ELISA
[4] = molecular target: T1, Antigen-presenting glycoprotein CD1d (Homo sapiens); assay: Binding affinity to human CD1d expressed in human HeLa cells assessed as increase in IL-13 production at 10 uM to 10^-4 uM incubated overnight prior to iNKT MAD11 cells addition to CD1d-compound mixture and measured after 24 hrs by ELISA

Row | Activity [2] | Activity [4] | Compound | Activity (iNKT [1]) | Activity (iNKT [3])
1 | Active | Active | CCCCCCCCCCCCCCCCCCCCCCCCCC(=O)N[C@@H](CO[C@H]1O[C@H](CO)[C@H](O)[C@H](O)[C@H]1O)C(F)(F)[C@H](O)CCCCCCCCCCCCCC | Non-Toxic | Non-Toxic
2 | Active | Active | CCCCCCCCCCCCCCCCCCCCCCCCCC(=O)N[C@@H](CO[C@H]1O[C@H](CO)[C@H](O)[C@H](O)[C@H]1O)[C@H](O)[C@H](O)CCCCCCCCCCCCCC [RGI-7000] | Non-Toxic | Non-Toxic
3 | Active | Active | CCCCCCCCCCCCCCCCCCCCCCCCCC(=O)N[C@@H](CO[C@H]1O[C@H](CO)[C@H](O)[C@H](O)[C@H]1O)C(F)(F)[C@@H](O)CCCCCCCCCCCCCC | Non-Toxic | Non-Toxic
4 | Active | Active | CCCCCCCCCCCCCCCCCCCCCCCCCC(=O)N[C@@H](CO[C@H]1O[C@H](CO)[C@H](O)[C@H](O)[C@H]1O)C(F)(F)C(F)(F)CCCCCCCCCCCCCC | Non-Toxic | Non-Toxic
